Assay results reported in article PMC7835894 (Molecules, 2021).

Tests used:
Assay type in all cases: cell-based, human
[1] = test system: cleaved Cas-3; assay: Western blotting in Caco-2 cells; conditions: Caco-2, IC50 dose, 24 h, normalized to β-actin
Description: (§1) The expression of Bax, Bcl-2, Cyt-C, cleaved cas-3 and p53 proteins in Caco-2 cells was determined using Western blot procedure according to the methods mentioned previously. […] Then, cells were lysed in 150 µL pre-cold lysis buffer [Tris-Base “10 mM”, NaCl “100 mM”, Ethylene glycol bis (2-aminoethyl) tetraacetic acid (EGTA) “20 mM”, ethylenediaminetetraacetic acid (EDTA) “25 mM”, 1% (v/v) NP-40, and 1% (v/v) Triton X-100; pH 7.4] immediately supplemented with 1:450 protease and phosphatase inhibitors cocktail (Sigma-Aldrich). Caco-2 cells were immediately collected by cell scraper, sonicated, and centrifuged at 12,000 rpm for 15 min. Total proteins in the produced supernatant were determined colorimetrically using the Pierce™ 660 nm Assay (Thermo Scientific, Rockford, IL, USA). Equal amounts (30 µg) of protein were mixed with sodium dodecyl sulfate (SDS)-loading buffer containing Tris-HCl, dithiothreitol (DTT), SDS, glycerol, and Bromophenol blue. The protein samples were then denatured by boiling for 5 min, allowed to cool on ice for 10 min and separated by SDS-polyacrylamide gel electrophoresis (Cleaver Scientific Ltd., Rugby, Warwickshire, UK), and transferred onto Polyvinylidene Difluoride (PVDF) membranes for 30 min using Trans-Blot® SD semi-dry transfer cell (Biorad). Membranes were then blocked with 5% (w/v) blotting-grade dry milk (Biorad) in Tris-buffered saline-Tween-20 (TBS-T), washed and incubated with antibodies against Bax, Bcl-2, cleaved caspase-3 (1:100–1:2000, Cell Signaling Technology), cytochrome c (1:500, Santa Cruz Biotechnology), p53 (1:1500, Abcam) and β-actin (1:2500, Sigma-Aldrich) for 16–17 h at 4 °C in a humidified chamber. The blots were washed, incubated at RT with matched horseradish peroxidase (HRP)-linked secondary antibodies (Dako, Denmark) for 1.5 h, and the bands were visualized with chemiluminescence Western Lightning ECL (Perkin Elmer, Waltham, MA) for 1 min in Chemi-Doc imager (Biorad, Hercules, CA, USA) and finally analyzed with Bio-Rad Image Lab software with normalization to β-actin.

[2] = test system: Caco-2 cells; assay: Isobologram analysis of retinoid + 5-FU combinations (MTT); conditions: Caco-2, combination with 5-FU; for CI (combination index): CI < 1 is synergy
Text: This mathematical model allows the determination of CI (combination index) values based on the Equation (1):CI = d1/D1 + d2/D2 (1) where d1 and d2 are the doses of drug 1 and drug 2 that, when given in combination, produce a specific response. D1 and D2 are the doses of drug 1 and drug 2, that, when given individually, produce the same response. Also, CI < 1 is synergy, CI = 1 is additivity and CI > 1 is antagonism
DRI < 1 indicates unfavorable dose reduction and ineffective combination.

[3] = test system: Cyt-C; assay: Western blotting in Caco-2 cells; conditions: Caco-2, IC50 dose, 24 h, normalized to β-actin
Description: as §1

[4] = test system: p53; assay: Western blotting in Caco-2 cells; conditions: Caco-2, IC50 dose, 24 h, normalized to β-actin
Description: as §1

| SMILES | activated (cleaved) Cas-3 protein level [1] | DRI (dose reduction index) [2] | CI (combination index) [2] | Cyt-C protein level [3] | p53 protein level [4] |
| --- | --- | --- | --- | --- | --- |
| CC1=C(/C=C/C(C)=C/C=C/C(C)=C/C(=O)O)C(C)(C)CCC1 [ATRA, All-trans retinoic acid, reference compound] | increment in the level of activated Cas-3 |  |  |  |  |
| CC1(C)CCC(C)(C)c2cc(C#Cc3cccc(C(=O)O)c3)ccc21 [EC19, 3-(5,5,8,8-tetramethyl-5,6,7,8-tetrahydronaphthalen-2-ylethynyl) benzoic acid] | increment in the level of activated Cas-3 | 4.5 ± 0.6 | 0.46 ± 0.06 | significantly increased | significantly increased |
| CC1(C)CCC(C)(C)c2cc(C#Cc3ccc(C(=O)O)cc3)ccc21 [EC23, 4-(5,5,8,8-tetramethyl-5,6,7,8-tetrahydronaphthalen-2-ylethynyl) benzoic acid] |  | 7.5 ± 0.8 | 0.27 ± 0.03 |  |  |
